Reference: US20010046963A1, “Novel use of flavones” (priority 2000, published 2001)

What was measured:
NFχB mRNA = assay: Semi-quantitative RT-PCR determination of NFχB mRNA levels in HT-29 cells; assay type: cell-based; conditions: for NFχB/GAPDH [AUC]: 150 μM flavone, n = 4
Procedure: (§1) HT-29 cells (passage 106) were provided by ATCC and used between passage 150 and 200. Cells were cultured and passaged in RPMI-1640 supplemented with […] and 2 mM glutamine (all from GIBCO, Eggenstein, Germany). Antibiotics added were 100 U/ml penicillin and 100 μg/ml streptomycin (GIBCO). The cultures were maintained in a humidified atmosphere of 95% air and 5% CO2 at 37° C. Cells were passaged at preconfluent densities by the use of a solution containing 0.05% trypsin and 0.5 mM EDTA (GIBCO).
(§2) RNA from HT-29 cells was isolated at the times indicated in table 5 according to the method described by Chomczynski and Sacchi Anal. Biochem. 162 (1987) 156 with slight modifications. Reverse transcription was done with 5 μg of isolated RNA. First strand cDNA synthesis was accomplished with an oligo-(dT)15 primer (MBI Fermentas). Amplification of sequence specific fragments (Taq Polymerase was from Sigma) was performed with 30 cycles (95° C. denaturation for 1 min, 55° C. hybridization for 2 min, 72° C. extensions for 2 min; Personal Cycler, Biometra, Göttingen, Germany). RT-PCR products were separated on a 1% agrose gel and visualized by ethidium bromide. The amount of first strand used to amplify specific sequences was derived from the linear range of amplification. The amplified GAP-DH sequence was used as a constitutively expressed control. The amplivied products were photographed and the intensity of the bands was analyzed by the SigmaGel software. No products were obtained for all genes without reverse transcription […]. A λ-DNA/EcoRI+HindIII marker (MBI Fermentas) was used in all PCR experiments as a size control of the amplified products. Amplified cDNA sequences (primers were custom synthesized by Eurogentec, Seraing, Belgium) were GAP-DH: bp 558-1010; COX-2: bp 1366-1870, NFχB:bp 2832-3401.
(§3) That this effect on gene expression occurred selectively was shown by unaltered mRNA levels of the tumor suppressor p53.
(§4) Semi-quantitative determination of COX-2 and NFχB mRNA levels in HT-29 cells by use of RT-PCR (n=4).

COX-2 mRNA = assay: Semi-quantitative RT-PCR determination of COX-2 mRNA levels in HT-29 cells; assay type: cell-based; conditions: for COX-2/GAPDH [AUC]: HT-29 cells, 150 μM flavone, n = 4
Procedure: as §1, §2, §3, §4

Structure (SMILES): O=c1cc(-c2ccccc2)oc2ccccc12 [flavone, Flavone]
- NFχB/GAPDH [AUC] (NFχB mRNA; incubation time 3 h): 1.1 AUC
- NFχB/GAPDH [AUC] (NFχB mRNA; incubation time 8 h): 1.7 AUC
- mRNA of NFχB (in words) (NFχB mRNA; flavone treatment): reduced dramatically
- COX-2 transcript levels (in words) (COX-2 mRNA; HT-29 cells exposed to flavone for 48 h): diminished in its transcript levels drastically
- COX-2/GAPDH [AUC] (COX-2 mRNA; incubation time 3 h): 0.69 AUC
- COX-2/GAPDH [AUC] (COX-2 mRNA; incubation time 8 h): 0.35 AUC
